Measurements from paper PMC6949113, “Preclinical evaluation of AT-527, a novel guanosine nucleotide prodrug with potent, pan-genotypic activity against hepatitis C virus” (PLoS ONE, 2020).
Several values for one entry are separate records, joined by “and”; a condition that tells them apart may be missing. Equal entries are not always repeated. Structures can show the parent of a compound that is named as a salt. Where two headings read alike, the source gives them in different places.

Legend:
human DNA polymerase γ = target: T1, human DNA polymerase γ (Homo sapiens, UniProt P54098); experiment: Human DNA polymerase inhibition assay, γ; assay type: biochemical
T1 construct: purchased CHIMERx (Madison, WI)
Procedure: (§1) The polymerases were purchased from CHIMERx (Madison, WI). Inhibition of DNA polymerase α activity was assayed in microtiter plates in 20 mM Tris-HCl, pH 8, 5 mM Mg acetate, 0.3 mg/mL BSA, 1mM DTT, 0.1 mM spermine, 0.05 mM dCTP, dTTP and dATP, 10 μCi ^32P-α-dGTP (800 Ci/mmol), 20 μg activated calf thymus DNA and the test compound at indicated concentrations. The DNA polymerase β and γ reaction mixture contained 50 mM Tris-HCl, pH 8.7, KCl (10 mM for β and 100 mM for γ), 10 mM MgCl2, 0.4 mg/mL BSA, 1mM DTT, 15% glycerol, 0.05 mM dCTP, dTTP and dATP, 10 μCi ^32P-α-dGTP (800 Ci/mmol), 20 μg activated calf thymus DNA and test compound at the indicated concentrations. For each assay, samples were run in triplicate, and positive controls were included. The enzyme reactions were allowed to proceed for 30 min at 37 °C followed by transfer onto glass-fiber filter plates and subsequent precipitation with 10% trichloroacetic acid (TCA). Plates were washed five times with 5% TCA, once with 95% ethanol and dried. The radioactive content of each filter was measured and used to determine the extent of inhibition of each polymerase.

Vero cells = experiment: XTT cytotoxicity, Vero cells; assay type: cell-based, African green monkey; conditions: HSV-1 assay
HSV-1 = experiment: Anti-HSV-1 assay (XTT); assay type: cell-based, herpes simplex virus type 1; conditions: Human alphaherpesvirus 1; HSV-1 in Vero cells
Description: Anti-Herpes Simplex Type 1 Virus (HSV-1).
(§2) Determination of antiviral activity and cytotoxicity.

[1] = target: human mitochondrial RNA polymerase (POLRMT) (Homo sapiens, UniProt O00411); conditions: nucleotide controls; cited from earlier work
Flu B = experiment: Anti-influenza B assay (XTT); assay type: cell-based, influenza virus type B; conditions: Influenza B virus; Flu B in MDCK cells
Description: Anti-Influenza Type A and B Virus (Flu A & B). […] The influenza A/PR/8/34 (VR-95) and influenza B/Allen/45 (VR-102) was obtained from ATCC and a stock virus pool was produced in MDCK cells.
as §2

Flu A = experiment: Anti-influenza A assay (XTT); assay type: cell-based, influenza virus type A; conditions: Influenza A virus; Flu A in MDCK cells
[2] = system: HCV NS5B replicons from clinical isolates; experiment: PhenoSense HCV NS5B assay, clinical isolates; assay type: cell-based, hepatitis C virus; conditions: for EC50: Hepatitis C virus
HCV GT1b replicon = HCV GT1b replicon assay (Britelite luciferase reporter)
Huh-luc/neo-ET cells = conditions: XTT
[3] = system: HCV NS5B replicons, laboratory strains; experiment: PhenoSense HCV NS5B assay, laboratory strains; assay type: cell-based, hepatitis C virus
[4] = system: HCV strains containing resistance-associated variants (RAVs); experiment: PhenoSense HCV NS5B assay, resistance-associated variants; assay type: cell-based, hepatitis C virus; conditions: for EC50: Hepatitis C virus
HBV = experiment: Anti-HBV evaluation (qPCR of HBV DNA); assay type: cell-based; conditions: Hepatitis B virus; HBV in AD38 cells
Procedure: (§3) Anti-HBV evaluation. […] The test compound was serially diluted in the RPMI/FBS medium and added to the wells in triplicate (with six wells receiving medium alone as a virus only control). The plate was incubated for 6 days, with a change in medium (+/- compound) on Day 3. Supernatant (100 µL) was collected from each well for analysis of viral DNA by qPCR as described below and cytotoxicity was evaluated by XTT staining of the cell culture monolayer on the sixth day as described above.
Quantitative PCR detection of HBV DNA. Cell culture supernatant (10 µL) was diluted in qPCR dilution buffer (40 µg/mL sheared salmon sperm DNA) and boiled for 15 min. Quantitative real time PCR was performed in […] using an Applied Biosystems 7900HT Sequence Detection System and the supporting SDS 2.4 software. Samples (5 µL boiled DNA) and DNA standards were subjected to real time qPCR using Platinum Quantitative PCR SuperMix-UDG (Invitrogen) and specific DNA oligonucleotide primers (IDT, Coralville, […]) HBV-AD38-qF1 (5’-[…] -3’), HBV-AD38-qR1 (5’-AGT CCA AGA GTY CTC TTA TRY AAG ACC TT-3’), and HBV-AD38-qP1 (5’-FAM-CCG TGT GCA/ZEN/[…] -3’BHQ1) at a final concentration of 0.2 µM for each primer in a total reaction volume of 15 µL. […]

AD38 cells = experiment: XTT cytotoxicity, AD38 cells; assay type: cell-based; conditions: AD38, HBV assay
Procedure: as §2, §3

RSV = experiment: Anti-RSV assay (XTT); conditions: RSV in HEp2 cells
HIV-1 = experiment: Anti-HIV-1 assay (XTT); assay type: cell-based, human immunodeficiency virus type 1; conditions: Human immunodeficiency virus 1; HIV-1 in CEM-SS cells
Procedure: Anti-Human Immunodeficiency Virus (HIV-1). CEM-SS cells were obtained from the NIH AIDS Research and Reference Reagent Program (Manassas, VA), resuspended at 5x10^4 cells per mL and 50 µL added to the microtiter plate wells. The lymphocyte-tropic virus strain HIV-1RF (obtained from the NIH AIDS Research and Reference Reagent Program and grown in CEM-SS cells for stock virus pools) was used for the assay.
as §2

[5] = system: granulocyte macrophage (GM) human bone marrow progenitor cells; experiment: Bone marrow progenitor cell inhibition assay, GM; assay type: cell-based; conditions: 14 days
CEM-SS cells = experiment: XTT cytotoxicity, CEM-SS cells; assay type: cell-based; conditions: HIV-1 assay
[6] = system: erythroid (E) human bone marrow progenitor cells; experiment: Bone marrow progenitor cell inhibition assay, E; assay type: cell-based; conditions: 14 days
Description: Bone marrow progenitor cell inhibition assays. […] The resulting number of colonies (greater than 30 cells) were compared to control wells to determine the extent of cytotoxicity.

human iPS cardiomyocytes = assay type: cell-based; conditions: 3 days
Procedure: Cardiomyocyte assay. […] Test or positive control compounds were then added in triplicate and the incubations continued for 3 days. Cell viability was measured by XTT and CellTiter Glo staining. For the latter method, the medium was removed from test plates, replaced with CellTiter Glo reagent in fresh medium before incubating at RT for 10 min. The well contents were transferred to a white 96-well plate and luminescence measured within 15 min on a Wallac 1450 Microbeta Trilux liquid scintillation counter.

human DNA polymerase β = target: T2, human DNA polymerase β (Homo sapiens, UniProt P06746); experiment: Human DNA polymerase inhibition assay, β; assay type: biochemical
T2 construct: purchased CHIMERx (Madison, WI)
Procedure: as §1

[7] = individual assays, AT-511 batches 1-6, SOF in parallel

human mitochondrial RNA polymerase (POLRMT), sequence (O00411 42-1230): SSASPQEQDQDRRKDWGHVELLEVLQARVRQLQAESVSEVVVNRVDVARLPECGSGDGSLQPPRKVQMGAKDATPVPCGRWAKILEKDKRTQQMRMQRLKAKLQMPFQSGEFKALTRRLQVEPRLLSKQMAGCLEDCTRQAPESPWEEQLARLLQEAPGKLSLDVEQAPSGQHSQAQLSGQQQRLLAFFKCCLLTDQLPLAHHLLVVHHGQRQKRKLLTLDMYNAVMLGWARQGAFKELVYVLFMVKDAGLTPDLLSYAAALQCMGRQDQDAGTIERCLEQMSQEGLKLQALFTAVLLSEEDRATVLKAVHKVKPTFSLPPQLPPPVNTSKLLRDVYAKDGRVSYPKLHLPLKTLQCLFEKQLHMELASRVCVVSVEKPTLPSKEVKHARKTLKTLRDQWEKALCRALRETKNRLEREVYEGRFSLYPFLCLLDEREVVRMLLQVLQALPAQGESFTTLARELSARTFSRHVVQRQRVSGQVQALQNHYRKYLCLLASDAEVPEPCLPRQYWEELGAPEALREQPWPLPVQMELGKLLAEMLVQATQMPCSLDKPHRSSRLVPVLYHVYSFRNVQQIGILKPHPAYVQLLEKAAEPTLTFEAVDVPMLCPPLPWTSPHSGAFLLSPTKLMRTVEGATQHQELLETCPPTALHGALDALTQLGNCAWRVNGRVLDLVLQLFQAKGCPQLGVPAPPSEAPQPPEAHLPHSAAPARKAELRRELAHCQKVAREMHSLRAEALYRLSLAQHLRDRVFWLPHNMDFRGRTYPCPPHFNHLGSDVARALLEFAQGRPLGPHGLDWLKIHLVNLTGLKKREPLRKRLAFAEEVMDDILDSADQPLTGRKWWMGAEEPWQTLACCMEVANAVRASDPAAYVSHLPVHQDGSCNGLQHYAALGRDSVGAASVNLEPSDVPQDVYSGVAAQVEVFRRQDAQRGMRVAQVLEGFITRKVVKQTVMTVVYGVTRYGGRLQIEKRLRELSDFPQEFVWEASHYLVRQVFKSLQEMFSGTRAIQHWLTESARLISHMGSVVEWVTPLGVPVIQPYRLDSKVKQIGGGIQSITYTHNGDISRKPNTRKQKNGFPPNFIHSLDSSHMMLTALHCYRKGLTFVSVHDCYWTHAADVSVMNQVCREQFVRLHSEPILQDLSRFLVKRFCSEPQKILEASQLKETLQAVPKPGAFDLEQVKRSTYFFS
T1 sequence (P54098 whole entry): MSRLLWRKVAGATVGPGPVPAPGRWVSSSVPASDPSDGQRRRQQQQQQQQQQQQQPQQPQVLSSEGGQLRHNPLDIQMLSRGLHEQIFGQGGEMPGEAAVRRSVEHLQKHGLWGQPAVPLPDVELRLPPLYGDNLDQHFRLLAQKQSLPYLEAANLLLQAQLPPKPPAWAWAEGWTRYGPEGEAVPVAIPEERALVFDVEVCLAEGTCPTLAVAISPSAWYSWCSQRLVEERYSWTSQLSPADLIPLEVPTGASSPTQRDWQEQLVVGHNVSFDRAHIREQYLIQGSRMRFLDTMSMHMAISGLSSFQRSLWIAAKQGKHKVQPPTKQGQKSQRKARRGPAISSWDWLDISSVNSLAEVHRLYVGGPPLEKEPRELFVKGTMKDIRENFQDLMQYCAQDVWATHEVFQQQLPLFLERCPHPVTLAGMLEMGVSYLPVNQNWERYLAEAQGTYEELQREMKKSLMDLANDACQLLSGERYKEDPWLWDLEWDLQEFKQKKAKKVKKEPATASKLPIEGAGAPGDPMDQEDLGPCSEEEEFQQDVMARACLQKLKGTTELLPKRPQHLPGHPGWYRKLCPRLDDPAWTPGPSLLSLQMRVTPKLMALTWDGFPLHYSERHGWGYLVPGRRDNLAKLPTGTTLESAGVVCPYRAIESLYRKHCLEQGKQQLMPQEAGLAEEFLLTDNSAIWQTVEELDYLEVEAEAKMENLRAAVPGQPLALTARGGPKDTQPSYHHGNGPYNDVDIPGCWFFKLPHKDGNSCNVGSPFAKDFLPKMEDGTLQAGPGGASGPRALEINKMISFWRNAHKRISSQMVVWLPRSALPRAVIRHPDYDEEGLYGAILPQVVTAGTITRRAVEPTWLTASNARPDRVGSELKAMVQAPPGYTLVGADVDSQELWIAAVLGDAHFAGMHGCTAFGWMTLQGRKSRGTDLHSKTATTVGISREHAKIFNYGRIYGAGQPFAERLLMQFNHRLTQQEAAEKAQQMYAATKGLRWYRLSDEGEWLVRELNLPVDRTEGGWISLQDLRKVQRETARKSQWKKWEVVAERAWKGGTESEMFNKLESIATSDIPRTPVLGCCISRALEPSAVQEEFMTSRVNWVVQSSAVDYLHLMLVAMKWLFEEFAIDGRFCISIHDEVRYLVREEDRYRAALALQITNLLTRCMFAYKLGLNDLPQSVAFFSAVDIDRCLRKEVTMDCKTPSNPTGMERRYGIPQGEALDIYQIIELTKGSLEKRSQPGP

Nc1nc2c(ncn2[C@@H]2O[C@H](COP(=O)(O)OP(=O)(O)OP(=O)(O)O)[C@@H](O)[C@H]2F)c(=O)[nH]1 [2’-fluoro-2’-dGTP, reference compound]
IC50 (human DNA polymerase γ): 10400 nM

Nc1nc2c(ncn2COCCO)c(=O)[nH]1 [Acyclovir]
TC50 (Vero cells): >100000 nM | EC50 (HSV-1): 1760 nM

Nc1nc2c(ncn2[C@@H]2O[C@H](COP(=O)(O)OP(=O)(O)OP(=O)(O)O)[C@@H](O)[C@H]2O)c(=O)[nH]1 [GTP]
kpol [1]: 21 ± 1 s⁻¹

CCOC(=O)C1=C[C@@H](OC(CC)CC)[C@H](NC(C)=O)[C@@H](N)C1 [Oseltamivir]
EC50 (Flu B): 420 nM | TC50 (MDCK cells; Flu A assay): >10000 nM | TC50 (MDCK cells; Flu B assay): >10000 nM | EC50 (Flu A): 160 nM

CC(C)OC(=O)[C@H](C)N[P@](=O)(OC[C@H]1O[C@@H](n2ccc(=O)[nH]c2=O)[C@](C)(F)[C@@H]1O)Oc1ccccc1 [SOF, sofosbuvir]
EC50 ([2]; GT1A, clinical isolate GT1a): 62.7 nM | EC50 ([2]; GT1B, clinical isolate GT1b): 86 nM | EC50 ([2]; GT2A, clinical isolate GT2a): 22.5 nM | EC50 ([2]; GT2B, clinical isolate GT2b): 44.8 nM | EC50 ([2]; GT3A, clinical isolate GT3a-1): 126 nM | EC50 ([2]; GT3A, clinical isolate GT3a-2): 123 nM | EC50 ([2]; GT4A, clinical isolate GT4a): 74.9 nM | EC50 ([2]; clinical isolate GT4d): 93.7 nM | EC50 ([2]; read-out: range in EC50 values, eight clinical-isolate replicons): 23 to 126 nM | EC95 ([2]; clinical isolate GT1a): 508 nM | EC95 ([2]; clinical isolate GT1b): 642 nM | EC95 ([2]; clinical isolate GT2a): 195 nM | EC95 ([2]; clinical isolate GT2b): 295 nM | EC95 ([2]; clinical isolate GT3a-1): 690 nM | EC95 ([2]; clinical isolate GT3a-2): 808 nM | EC95 ([2]; clinical isolate GT4a): 681 nM | EC95 ([2]; clinical isolate GT4d): 1020 nM | fold range in EC50 values ([2]; clinical isolates): 5.5 fold | fold range in EC95 values ([2]; clinical isolates): 5.2 fold | EC50 (HCV GT1b replicon; Hepatitis C virus, GT1B, read-out: EC50 range, range over all assays): 33 to 68 nM | EC50 (HCV GT1b replicon; Hepatitis C virus, GT1B, read-out: mean EC50, mean (± SD) of all assays): 48 ± 10 nM | EC50 (HCV GT1b replicon; [7]): 52.3 nM and 46.5 nM and 67.5 nM and 32.7 nM and 48.3 nM and 40.4 nM and 47.6 nM and 48.1 nM | EC95 (HCV GT1b replicon; [7]): 360 nM and 231 nM and 387 nM and 197 nM and 247 nM and 198 nM and 275 nM and 263 nM | mean EC95 (HCV GT1b replicon; mean (± SD) of all assays): 270 ± 70 nM and 270 nM | EC50 (HCV GT1b replicon; read-out: EC50 range, range over all assays): 32.7 to 67.5 nM | EC50 (HCV GT1b replicon; read-out: mean EC50, mean (± SD) of all assays): 47.9 nM | toxicity to the replicon cells, none up to highest concentration tested (Huh-luc/neo-ET cells): > 1 µM | TC50 (Huh-luc/neo-ET cells; individual assays): >1000 nM | EC95 ([3]; GT1a H77): 719 nM | EC95 ([3]; GT1b Con-1): 545 nM | EC50 ([3]; GT1b Con-1 (control reference)): 89.4 nM | EC95 ([3]; GT3a S52): 700 nM | EC50 ([3]; Hepatitis C virus, GT1A, GT1a H77): 83.4 nM | EC50 ([3]; Hepatitis C virus, GT1B, GT1b Con-1 (control reference)): 89 nM | EC50 ([3]; Hepatitis C virus, GT2A, GT2a JFH-1): 50.7 nM | EC50 ([3]; Hepatitis C virus, GT3A, GT3a S52): 117 nM | EC50 ([3]; Hepatitis C virus, GT4A, GT4a ED43): 158 nM | EC50 ([3]; Hepatitis C virus, GT5A, GT5a SA13): 287 nM | EC50 ([3]; Hepatitis C virus, read-out: range in EC50 values across genotypes, panel of six laboratory strains): 51 to 287 nM | fold range in EC50 values across genotypes ([3]; laboratory strains): 5.6 fold | EC95 ([4]; GT1a 2_C316N): 473 nM | EC95 ([4]; GT1a 2c1_L159F): 1068 nM | EC95 ([4]; GT1a 2c2_L159F_S282T): 16950 nM | EC95 ([4]; GT1a H77_C316N): 469 nM | EC95 ([4]; GT1a H77_S282T): 7230 nM | EC95 ([4]; GT1b Con-1_L159F): 715 nM | EC95 ([4]; GT1b Con-1_S282T): 7230 nM | EC95 ([4]; GT2b 2_L159F): 539 nM | EC50 ([4]; GT1A, GT1a 2_C316N): 73.9 nM | EC50 ([4]; GT1A, GT1a 2c1_L159F): 115 nM | EC50 ([4]; GT1A, GT1a 2c2_L159F_S282T): 1620 nM | EC50 ([4]; GT1A, GT1a H77_C316N): 57.2 nM | EC50 ([4]; GT1A, GT1a H77_S282T): 1400 nM | EC50 ([4]; GT1B, GT1b Con-1_L159F): 111 nM | EC50 ([4]; GT1B, GT1b Con-1_S282T): 950 nM | EC50 ([4]; GT2B, GT2b 2_L159F): 79.2 nM | shift in EC50 versus reference strain lacking S282T ([4]; strains with S282T): 15 fold | shift in EC95 versus reference strain lacking S282T ([4]; strains with S282T): 19 fold

CC(C)OC(=O)OCOP(=O)(CO[C@H](C)Cn1cnc2c(N)ncnc21)OCOC(=O)OC(C)C [TDF, tenofovir disoproxil fumarate]
EC50 (HBV): 230 nM | TC50 (AD38 cells): >1000 nM

Cc1ccc(CCCO)c(NCc2ccc3nc(NCCCN4CCOCC4)n(Cc4nc(C)ccc4O)c3c2)c1 [TMC-353121]
EC50 (RSV): 3 nM | TC50 (HEp2 cells): >100 nM

O=c1ccn([C@@H]2O[C@H](COP(=O)(O)OP(=O)(O)OP(=O)(O)O)[C@@H](O)[C@H]2O)c(=O)[nH]1 [UTP]
kpol [1]: 17 ± 1 s⁻¹

Cc1cn([C@H]2C[C@H](N=[N+]=[N-])[C@@H](CO)O2)c(=O)[nH]c1=O [Zidovudine]
EC50 (HIV-1): 4 nM | TC50 [5]: 1000 nM | TC50 (CEM-SS cells): >500 nM | TC50 [6]: 2000 nM

COc1cc2nc(N3CCN(C(=O)C4COc5ccccc5O4)CC3)nc(N)c2cc1OC (centres unmarked) [doxazosin]
TC50 (human iPS cardiomyocytes): 18000 nM

C[C@H](CCC(=O)O)[C@H]1CC[C@H]2[C@@H]3CC[C@@H]4C[C@H](O)CC[C@]4(C)[C@H]3CC[C@]12C [lithocholic acid, reference compound]
IC50 (human DNA polymerase β): 2910 nM
